Assay results published in ChEMBL document CHEMBL1201862, “PubChem BioAssay data set” (2004).
The source made the active and inactive calls.

Experiments:
[1] = target: G-protein coupled receptor 55 (Homo sapiens, UniProt Q9Y2T6); experiment: selective activators of receptor GPR55 – imaging, U2OS cells, beta-arrestin-GFP redistribution, primary screen (AID 1961); format: functional
[2] = NIH3T3 cell viability loss – ATP luminescence, mouse fibroblasts, counter-screen, dose response (AID 2010); format: functional, cell-based;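 also: cells exposed to compound for about 90 hours before reading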
[3] = Trypanosoma cruzi growth suppression in host cells – NIH3T3 host cells, beta-gal luminescence, confirmation (AID 2044); format: functional, cell-based;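 also: intracellular parasites grown in NIH/3T3 mouse fibroblasts as host cells; luminescent beta-galactosidase reporter signal from transgenic T. cruzi replicating inside host cells; inhibitors lower the luminescence signal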
[4] = target: T1, Neuropeptide Y receptor type 1 (Homo sapiens, UniProt P25929); experiment: IC50 of human NPY-Y1 blockers – cell-based, dose response (AID 1277); format: functional
T1 sequence (P25929 whole entry): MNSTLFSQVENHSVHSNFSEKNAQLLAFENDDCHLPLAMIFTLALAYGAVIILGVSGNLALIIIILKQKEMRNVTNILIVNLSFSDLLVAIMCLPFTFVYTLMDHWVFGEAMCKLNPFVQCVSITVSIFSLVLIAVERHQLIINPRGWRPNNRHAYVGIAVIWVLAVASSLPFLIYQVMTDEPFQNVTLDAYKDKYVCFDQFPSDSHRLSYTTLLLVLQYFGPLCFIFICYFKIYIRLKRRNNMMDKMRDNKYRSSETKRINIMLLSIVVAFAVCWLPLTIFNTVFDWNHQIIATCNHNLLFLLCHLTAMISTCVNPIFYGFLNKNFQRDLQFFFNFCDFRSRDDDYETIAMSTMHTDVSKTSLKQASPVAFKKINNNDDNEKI

[5] = target: T2, Neuropeptide Y receptor type 2 (Homo sapiens, UniProt P49146); experiment: IC50 for human NPY-Y2 blockade – cell-based, counter-screen for NPY-Y1 antagonist project, dose response (AID 1278); format: functional
T2 sequence (P49146 whole entry): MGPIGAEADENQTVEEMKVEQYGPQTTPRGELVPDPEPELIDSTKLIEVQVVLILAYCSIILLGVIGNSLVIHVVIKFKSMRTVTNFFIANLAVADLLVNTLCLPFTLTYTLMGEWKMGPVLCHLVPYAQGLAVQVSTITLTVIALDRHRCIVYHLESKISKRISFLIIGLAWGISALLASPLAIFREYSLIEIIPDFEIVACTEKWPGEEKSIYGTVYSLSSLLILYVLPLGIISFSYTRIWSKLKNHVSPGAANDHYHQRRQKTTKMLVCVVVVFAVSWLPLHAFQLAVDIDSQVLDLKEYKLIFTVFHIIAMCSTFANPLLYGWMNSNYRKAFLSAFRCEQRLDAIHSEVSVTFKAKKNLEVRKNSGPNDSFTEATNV

[6] = THP-1 cell cytotoxicity, dose response, cytotoxicity control for non-replicating M. tuberculosis project (AID 489025); format: functional
[7] = microbe, parasite or virus in culture; format: functional; conditions: Mycobacterium tuberculosis
[8] = cells; format: functional
[9] = Vero E6 cell cytotoxicity, dose response, cytotoxicity control for non-replicating M. tuberculosis project, secondary assay (AID 492998); format: functional, VeroE6; conditions: Vero C1008
[10] = Luminescence Cell-Based Dose Retest to Confirm Inhibitors of Cancer Stem Cells. [Related pubchem assays (depositor defined):AID2717, AID2721]; format: functional; conditions: Homo sapiens
[11] = HepG2 cell cytotoxicity, dose response, cytotoxicity control for non-replicating M. tuberculosis project (AID 489018); format: functional; conditions: Mycobacterium tuberculosis
[12] = target: Hexokinase HKDC1 (Homo sapiens, UniProt Q2TB90); experiment: inhibition of HKDC1 glucose phosphorylation – biochemical, W721R variant, dose response (AID 504729); format: functional
[13] = target: Genome polyprotein (dengue virus type 2, UniProt P29990); experiment: flavivirus cap methylation enzyme inhibition – biochemical, confirmation dose response, primary screen (AID 588689); format: functional
[14] = cells
[15] = target: Neurotensin receptor type 1 (Homo sapiens, UniProt P30989); format: functional;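 also: Image-based confirmatory dose-response assay measuring agonist activity at NTR1; NTR1-expressing U2OS osteosarcoma cells imaged for beta-arrestin GFP spot formation; agonist potency where compounds increase beta-arrestin recruitment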
[16] = target: Melanocortin receptor 4 (Homo sapiens, UniProt P32245); format: functional, cell-based;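 also: Cell-based assay with luminescence read-out, confirmatory dose-response testing for agonist activity of biased ligands at MC4R; human U2OS cells with tagged receptor and beta-arrestin; potency of agonists that increase receptor coupling to beta-arrestin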
[17] = target: T3, Cytochrome P450 2C9 (Homo sapiens, UniProt P11712)
[18] = A High Throughput Confirmatory Assay used to Identify Novel Compounds that Inhibit Mycobacterium Tuberculosis in the absence of Glycerol.; format: functional
[19] = target: Eukaryotic translation initiation factor 4E (Mus musculus, UniProt P63073); experiment: blockers of eIF4G binding by eIF4E – biochemical, TR-FRET, dose response (AID 855); format: functional;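 also: potency for disrupting eIF4E binding to eIF4GI seen as loss of FRET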
[20] = target: T4, Voltage-gated N-type calcium channel alpha-1B subunit/Amyloid beta A4 precursor protein-binding family A member 1 (Homo sapiens, UniProt Q00975+Q02410); format: protein assay
[21] = target: Glucose-6-phosphate 1-dehydrogenase (Homo sapiens, UniProt P11413); experiment: inhibition of Homo sapiens G6PD, dose series – biochemical, fluorescence, selectivity assay for P. falciparum G6PD inhibitor project, dose response (AID 504792); format: functional
[22] = target: T4, Voltage-gated N-type calcium channel alpha-1B subunit/Amyloid beta A4 precursor protein-binding family A member 1; format: protein assay; remark: listed apart in the source
[23] = target: T5, Mannose-6-phosphate isomerase (Homo sapiens, UniProt P34949); experiment: MPI enzyme activity inhibition – biochemical, fluorescence intensity, coupled assay, primary screen (AID 1209)
T5 sequence (P34949 whole entry): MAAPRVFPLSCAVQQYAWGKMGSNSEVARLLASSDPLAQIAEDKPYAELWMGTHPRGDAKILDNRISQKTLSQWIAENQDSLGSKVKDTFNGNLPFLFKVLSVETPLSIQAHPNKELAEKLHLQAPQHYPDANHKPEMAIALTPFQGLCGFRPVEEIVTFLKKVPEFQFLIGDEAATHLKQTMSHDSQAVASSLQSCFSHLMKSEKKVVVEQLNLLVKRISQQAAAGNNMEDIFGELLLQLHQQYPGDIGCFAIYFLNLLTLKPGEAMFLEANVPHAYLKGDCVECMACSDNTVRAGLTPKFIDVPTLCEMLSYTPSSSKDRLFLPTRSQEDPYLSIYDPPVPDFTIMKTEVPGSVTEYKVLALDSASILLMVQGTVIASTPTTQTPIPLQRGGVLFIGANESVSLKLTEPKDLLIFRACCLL

[24] = A Cell Based Secondary Assay To Explore Cytotoxicity of Compounds that Sensitize Mycobacterium Tuberculosis to Beta-Lactam Antibiotics.; format: functional
[25] = cells; format: functional, cell-based
[26] = cells; format: functional, cell-based; remark: listed apart in the source
[27] = system: HEK293; experiment: EBV LMP1 TES2 canonical NF-kB signalling blockers – cell-based, HEK293, luciferase, cherry-pick, dose response (AID 588343); format: functional; conditions: Homo sapiens
[28] = A cytotoxicity screen of small molecule inhibitors of the PhoP region in Salmonella typhi identified in the primary screen. [Related pubchem assays: 1850, 1864, 1985 ]; format: functional
[29] = target: T3, Cytochrome P450 2C9; conditions: Potency
[30] = target: Cytochrome P450 2D6 (Homo sapiens, UniProt P10635); experiment: qHTS Assay for Inhibitors and Substrates of Cytochrome P450 2D6. [Related pubchem assays: 410 ]; format: ADME; conditions: read-out: Potency
Chain of Cytochrome P450 2D6 (P10635 whole entry): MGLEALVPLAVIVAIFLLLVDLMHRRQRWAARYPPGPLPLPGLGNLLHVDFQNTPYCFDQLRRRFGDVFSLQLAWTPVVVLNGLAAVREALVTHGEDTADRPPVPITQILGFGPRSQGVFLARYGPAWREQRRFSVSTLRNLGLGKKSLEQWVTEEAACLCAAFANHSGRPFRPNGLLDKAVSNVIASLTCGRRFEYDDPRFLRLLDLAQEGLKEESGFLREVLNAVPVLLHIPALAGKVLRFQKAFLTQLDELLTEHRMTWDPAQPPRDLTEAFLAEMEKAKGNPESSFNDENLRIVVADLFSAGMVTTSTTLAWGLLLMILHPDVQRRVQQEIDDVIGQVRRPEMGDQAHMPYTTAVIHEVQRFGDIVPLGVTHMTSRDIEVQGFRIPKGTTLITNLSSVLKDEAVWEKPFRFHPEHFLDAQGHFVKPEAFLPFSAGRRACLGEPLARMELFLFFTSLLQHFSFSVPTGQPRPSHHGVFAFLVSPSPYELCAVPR

T3 sequence (P11712 whole entry): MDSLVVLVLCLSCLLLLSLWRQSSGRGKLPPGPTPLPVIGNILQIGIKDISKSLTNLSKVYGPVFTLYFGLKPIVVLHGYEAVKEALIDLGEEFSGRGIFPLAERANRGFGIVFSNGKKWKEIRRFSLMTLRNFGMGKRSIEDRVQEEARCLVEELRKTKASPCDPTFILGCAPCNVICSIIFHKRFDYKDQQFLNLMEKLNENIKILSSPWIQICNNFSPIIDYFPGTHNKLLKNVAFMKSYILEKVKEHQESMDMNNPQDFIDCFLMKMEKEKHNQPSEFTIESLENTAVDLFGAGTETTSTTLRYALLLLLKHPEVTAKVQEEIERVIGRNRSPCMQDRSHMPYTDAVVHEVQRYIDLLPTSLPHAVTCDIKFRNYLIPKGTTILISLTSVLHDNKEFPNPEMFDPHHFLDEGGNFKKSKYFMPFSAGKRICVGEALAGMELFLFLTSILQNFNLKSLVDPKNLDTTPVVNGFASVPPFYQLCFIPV
T4 sequence (Q00975 whole entry): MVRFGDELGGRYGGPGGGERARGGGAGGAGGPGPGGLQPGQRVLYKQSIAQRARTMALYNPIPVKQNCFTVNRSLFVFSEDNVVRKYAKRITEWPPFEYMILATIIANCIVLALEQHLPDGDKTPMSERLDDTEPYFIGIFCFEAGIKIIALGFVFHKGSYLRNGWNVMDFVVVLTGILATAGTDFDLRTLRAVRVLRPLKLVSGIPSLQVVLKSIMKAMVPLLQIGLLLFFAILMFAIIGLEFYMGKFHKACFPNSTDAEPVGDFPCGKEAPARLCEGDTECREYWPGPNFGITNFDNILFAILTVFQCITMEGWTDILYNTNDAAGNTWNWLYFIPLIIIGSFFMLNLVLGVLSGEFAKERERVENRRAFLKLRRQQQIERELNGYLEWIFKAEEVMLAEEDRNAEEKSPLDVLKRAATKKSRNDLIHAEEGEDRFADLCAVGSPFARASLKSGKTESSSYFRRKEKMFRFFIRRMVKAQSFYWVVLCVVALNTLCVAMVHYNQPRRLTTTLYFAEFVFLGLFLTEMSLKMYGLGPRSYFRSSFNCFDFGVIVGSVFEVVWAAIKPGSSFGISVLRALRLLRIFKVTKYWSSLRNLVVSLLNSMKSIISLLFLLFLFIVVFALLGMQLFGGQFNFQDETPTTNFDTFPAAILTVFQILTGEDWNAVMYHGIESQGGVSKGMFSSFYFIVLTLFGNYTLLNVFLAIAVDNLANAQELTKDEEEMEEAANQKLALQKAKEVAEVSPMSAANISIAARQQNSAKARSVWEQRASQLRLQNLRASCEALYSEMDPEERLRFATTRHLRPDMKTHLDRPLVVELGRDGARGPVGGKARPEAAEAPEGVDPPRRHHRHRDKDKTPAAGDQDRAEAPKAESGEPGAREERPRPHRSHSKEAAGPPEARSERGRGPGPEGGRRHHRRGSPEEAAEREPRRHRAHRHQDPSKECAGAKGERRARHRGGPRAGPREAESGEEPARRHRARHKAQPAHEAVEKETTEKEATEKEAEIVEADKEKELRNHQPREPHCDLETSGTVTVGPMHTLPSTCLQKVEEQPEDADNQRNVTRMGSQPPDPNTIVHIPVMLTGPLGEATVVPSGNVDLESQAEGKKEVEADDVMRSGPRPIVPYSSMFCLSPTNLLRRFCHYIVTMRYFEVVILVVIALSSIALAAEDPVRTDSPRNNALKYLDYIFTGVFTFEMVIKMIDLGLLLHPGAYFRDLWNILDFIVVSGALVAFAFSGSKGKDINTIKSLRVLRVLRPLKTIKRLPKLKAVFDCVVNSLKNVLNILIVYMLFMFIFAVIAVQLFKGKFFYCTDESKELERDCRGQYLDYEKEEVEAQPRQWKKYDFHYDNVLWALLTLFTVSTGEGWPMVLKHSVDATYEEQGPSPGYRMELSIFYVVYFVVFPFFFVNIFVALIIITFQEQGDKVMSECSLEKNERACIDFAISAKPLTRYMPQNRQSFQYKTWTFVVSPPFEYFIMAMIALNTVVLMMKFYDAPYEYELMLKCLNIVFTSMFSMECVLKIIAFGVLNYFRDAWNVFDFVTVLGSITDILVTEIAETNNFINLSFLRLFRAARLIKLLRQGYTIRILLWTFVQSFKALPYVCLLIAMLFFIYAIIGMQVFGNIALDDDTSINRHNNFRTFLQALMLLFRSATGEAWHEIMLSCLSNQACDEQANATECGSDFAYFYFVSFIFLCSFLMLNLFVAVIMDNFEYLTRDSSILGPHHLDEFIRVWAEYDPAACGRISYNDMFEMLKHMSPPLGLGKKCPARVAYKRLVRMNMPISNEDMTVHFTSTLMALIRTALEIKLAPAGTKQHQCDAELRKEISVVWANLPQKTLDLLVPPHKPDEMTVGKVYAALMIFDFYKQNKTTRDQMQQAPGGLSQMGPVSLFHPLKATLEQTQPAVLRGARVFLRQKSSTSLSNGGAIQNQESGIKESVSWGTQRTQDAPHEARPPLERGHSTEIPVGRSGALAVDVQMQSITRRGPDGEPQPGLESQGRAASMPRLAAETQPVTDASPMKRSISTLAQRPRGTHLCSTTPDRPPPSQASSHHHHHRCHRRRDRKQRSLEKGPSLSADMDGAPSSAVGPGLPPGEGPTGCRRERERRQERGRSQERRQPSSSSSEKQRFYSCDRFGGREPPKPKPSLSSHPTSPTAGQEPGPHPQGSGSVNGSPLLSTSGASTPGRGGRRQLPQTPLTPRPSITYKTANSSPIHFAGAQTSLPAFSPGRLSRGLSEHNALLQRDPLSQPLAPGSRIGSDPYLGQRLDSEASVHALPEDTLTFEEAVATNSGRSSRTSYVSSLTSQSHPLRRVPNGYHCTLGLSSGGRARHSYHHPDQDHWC
T4 sequence (Q02410 whole entry): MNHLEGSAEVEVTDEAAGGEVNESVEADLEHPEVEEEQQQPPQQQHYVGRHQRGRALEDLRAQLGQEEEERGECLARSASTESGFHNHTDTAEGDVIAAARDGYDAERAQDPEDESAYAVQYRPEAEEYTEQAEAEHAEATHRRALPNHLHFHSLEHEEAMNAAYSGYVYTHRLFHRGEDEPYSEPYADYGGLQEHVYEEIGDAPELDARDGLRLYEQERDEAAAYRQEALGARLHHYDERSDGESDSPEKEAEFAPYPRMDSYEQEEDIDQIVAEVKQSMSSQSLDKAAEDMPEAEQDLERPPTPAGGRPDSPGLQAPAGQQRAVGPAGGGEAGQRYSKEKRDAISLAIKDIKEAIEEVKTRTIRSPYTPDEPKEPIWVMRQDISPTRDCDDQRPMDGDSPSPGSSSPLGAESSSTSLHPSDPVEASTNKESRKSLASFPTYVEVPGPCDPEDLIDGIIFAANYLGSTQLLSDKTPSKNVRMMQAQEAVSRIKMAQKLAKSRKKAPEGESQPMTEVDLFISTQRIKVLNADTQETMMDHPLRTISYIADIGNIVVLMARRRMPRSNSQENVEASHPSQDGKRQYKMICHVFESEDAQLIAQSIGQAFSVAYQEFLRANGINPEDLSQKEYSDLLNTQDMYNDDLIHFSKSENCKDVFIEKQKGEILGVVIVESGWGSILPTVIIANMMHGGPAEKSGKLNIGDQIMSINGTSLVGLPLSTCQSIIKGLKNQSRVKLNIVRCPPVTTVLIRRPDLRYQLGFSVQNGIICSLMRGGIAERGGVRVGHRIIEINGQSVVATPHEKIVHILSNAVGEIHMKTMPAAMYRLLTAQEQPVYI
Chain of G-protein coupled receptor 55 (Q9Y2T6 whole entry): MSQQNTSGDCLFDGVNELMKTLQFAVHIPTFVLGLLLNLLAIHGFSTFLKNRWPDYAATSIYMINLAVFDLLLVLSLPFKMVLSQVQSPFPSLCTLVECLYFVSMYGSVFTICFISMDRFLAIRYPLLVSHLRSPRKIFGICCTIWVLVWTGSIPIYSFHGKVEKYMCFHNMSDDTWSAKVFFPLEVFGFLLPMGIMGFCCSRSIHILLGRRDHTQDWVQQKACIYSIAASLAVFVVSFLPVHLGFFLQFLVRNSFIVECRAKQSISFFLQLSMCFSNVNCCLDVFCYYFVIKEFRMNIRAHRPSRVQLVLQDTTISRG
Chain of Neurotensin receptor type 1 (P30989 whole entry): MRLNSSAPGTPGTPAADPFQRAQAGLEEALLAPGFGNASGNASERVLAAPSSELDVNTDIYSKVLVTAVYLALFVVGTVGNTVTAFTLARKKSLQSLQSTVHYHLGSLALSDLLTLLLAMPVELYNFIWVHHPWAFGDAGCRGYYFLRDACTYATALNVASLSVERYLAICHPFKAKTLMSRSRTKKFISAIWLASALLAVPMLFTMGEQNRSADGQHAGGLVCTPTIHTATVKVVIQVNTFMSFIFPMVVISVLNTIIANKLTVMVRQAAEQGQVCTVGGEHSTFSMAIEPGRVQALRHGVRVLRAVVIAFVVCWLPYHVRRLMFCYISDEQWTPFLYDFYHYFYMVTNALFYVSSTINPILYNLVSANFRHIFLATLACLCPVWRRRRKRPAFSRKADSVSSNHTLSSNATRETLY

What does the source list for O=C(Nc1ccc(Cl)c(Cl)c1)N(Cc1cccnc1)Cc1ccco1?
EC50 [1]: > 32 µM (inactive); EC50 [2]: > 60 µM (not active); EC50 [3]: 0.552 µM (active)

Which IC50 [4] does the source give for COc1ccc(N(C(=O)C2CCCCC2)S(=O)(=O)c2cccc3cccnc23)cc1 here?
Its IC50 is > 35 µM (not active).

And the IC50 [5]?
Its IC50 is > 35 µM (not active).

For CN1CCN(C2Cc3ccccc3Sc3cc(C(F)(F)F)ccc32)CC1 (configuration not stated), which CC50 [6] is on record?
Its CC50 is 17.4 µM (active).

And the CC50 [7]?
The CC50 was 17.9 µM (active).

And the IC50 [8]?
Its IC50 is 14.9 µM (active).

And the CC50 [9]?
Its CC50 is > 20 µM (active).

And the AC50 [10]?
Its AC50 is 6.72 µM (active).

And the CC50 [11]?
The CC50 was > 20 µM (active).

With CCC(c1ccccc1)C(CC)c1cc(O)c(O)c(O)c1 (configuration not stated) as the molecule, how does the IC50 [12] read?
The IC50 was 18.3 µM (active).

And the IC50 [13]?
The IC50 was 39.4 µM (active).

With C#CCOCCOCCOCCNc1nc(N2CCN(C(=O)CCCCCCCCCCNC(=O)[C@@H]([C@H](C)O)n3cc(C)nn3)CC2)nc(N2CCN(C(=O)CCCCCCCCCCNC(=O)[C@@H]([C@H](C)O)n3cc(C)nn3)CC2)n1 as the molecule, how does the IC50 [14] read?
Its IC50 is 15.1 µM (active).

For CCC(C)NC(=O)c1c(N)n(/N=C/c2cccnc2)c2nc3ccccc3nc12 (configuration not stated), which EC50 [15] is on record?
The EC50 was > 40 µM (inactive).

And the EC50 [16]?
The EC50 was > 89.2 µM (inactive).

Which AC50 [17] does the source give for CC1=NN(c2ccccc2)C(=O)/C1=C\c1c(C)[nH]n(-c2ccccc2)c1=O here?
Its AC50 is 2.51 µM (inconclusive).

And the IC50 [18]?
The IC50 was > 100 µM (active).

Which IC50 [8] does the source give for COc1cc(/N=c2\ssnc2Cl)cc(OC)c1 here?
The IC50 was 39.2 µM (active).

What about the IC50 [19] of the same molecule?
The IC50 was 22.6 µM (active).

And the IC50 [20]?
Its IC50 is 0.738 µM (active).

What about the IC50 [21] of the same molecule?
Its IC50 is > 80 µM (inactive).

And the IC50 [22]?
The IC50 was 6.42 µM (active).

What about the IC50 [23] of the same molecule?
Its IC50 is 19.6 µM (active).

For COc1cccc(/C=N/NC(=O)CSCC(=O)Nc2ccccc2)c1O, which CC50 [24] is on record?
Its CC50 is 21.3 µM (active).

What about the EC50 [25] of the same molecule?
Its EC50 is 12.7 µM (active).

And the EC50 [26]?
Its EC50 is > 350 µM (not active).

What about the AC50 [27] of the same molecule?
Its AC50 is 25.4 µM (active).

For O=C(N/N=C/c1cccnc1)c1cccc(Cl)c1, which EC50 [28] is on record?
The EC50 was > 50 µM (active).

With Cc1ccc(OCC(=O)N/N=C/c2cn(C)c3ccccc23)cc1 as the molecule, how does the CC50 [24] read?
The CC50 was > 40 µM (active).

For O=c1cc(-c2ccccc2)oc2c1ccc1ccccc12 [ALPHA-NAPHTHOFLAVONE], which AC50 [29] is on record?
The AC50 was 7.94 µM (inconclusive).

And the AC50 [30]?
Its AC50 is 12.6 µM (inconclusive).
